Test results: patent US9926282B2, “Phthalazinones and isoquinolinones as rock inhibitors” (BRISTOL-MYERS SQUIBB COMPANY, priority 2013, dated 2018)
pIC50: −log10 of the molar value.

How the values were obtained:
ROCK1 = ROCK1 (Homo sapiens (Human), UniProt Q13464); assay: ROCK assay (LABCHIP peptide phosphorylation), ROCK1; type: biochemical; settings: 5 μM ATP, 1.5 μM peptide substrate; read-out: ROCK1 IC50
ROCK2 = ROCK2 (Homo sapiens (Human), UniProt O75116); assay: ROCK assay (LABCHIP peptide phosphorylation), ROCK2; type: biochemical; settings: 5 μM ATP, 1.5 μM peptide substrate
ROCK2, sequence (O75116 whole entry, species assumed): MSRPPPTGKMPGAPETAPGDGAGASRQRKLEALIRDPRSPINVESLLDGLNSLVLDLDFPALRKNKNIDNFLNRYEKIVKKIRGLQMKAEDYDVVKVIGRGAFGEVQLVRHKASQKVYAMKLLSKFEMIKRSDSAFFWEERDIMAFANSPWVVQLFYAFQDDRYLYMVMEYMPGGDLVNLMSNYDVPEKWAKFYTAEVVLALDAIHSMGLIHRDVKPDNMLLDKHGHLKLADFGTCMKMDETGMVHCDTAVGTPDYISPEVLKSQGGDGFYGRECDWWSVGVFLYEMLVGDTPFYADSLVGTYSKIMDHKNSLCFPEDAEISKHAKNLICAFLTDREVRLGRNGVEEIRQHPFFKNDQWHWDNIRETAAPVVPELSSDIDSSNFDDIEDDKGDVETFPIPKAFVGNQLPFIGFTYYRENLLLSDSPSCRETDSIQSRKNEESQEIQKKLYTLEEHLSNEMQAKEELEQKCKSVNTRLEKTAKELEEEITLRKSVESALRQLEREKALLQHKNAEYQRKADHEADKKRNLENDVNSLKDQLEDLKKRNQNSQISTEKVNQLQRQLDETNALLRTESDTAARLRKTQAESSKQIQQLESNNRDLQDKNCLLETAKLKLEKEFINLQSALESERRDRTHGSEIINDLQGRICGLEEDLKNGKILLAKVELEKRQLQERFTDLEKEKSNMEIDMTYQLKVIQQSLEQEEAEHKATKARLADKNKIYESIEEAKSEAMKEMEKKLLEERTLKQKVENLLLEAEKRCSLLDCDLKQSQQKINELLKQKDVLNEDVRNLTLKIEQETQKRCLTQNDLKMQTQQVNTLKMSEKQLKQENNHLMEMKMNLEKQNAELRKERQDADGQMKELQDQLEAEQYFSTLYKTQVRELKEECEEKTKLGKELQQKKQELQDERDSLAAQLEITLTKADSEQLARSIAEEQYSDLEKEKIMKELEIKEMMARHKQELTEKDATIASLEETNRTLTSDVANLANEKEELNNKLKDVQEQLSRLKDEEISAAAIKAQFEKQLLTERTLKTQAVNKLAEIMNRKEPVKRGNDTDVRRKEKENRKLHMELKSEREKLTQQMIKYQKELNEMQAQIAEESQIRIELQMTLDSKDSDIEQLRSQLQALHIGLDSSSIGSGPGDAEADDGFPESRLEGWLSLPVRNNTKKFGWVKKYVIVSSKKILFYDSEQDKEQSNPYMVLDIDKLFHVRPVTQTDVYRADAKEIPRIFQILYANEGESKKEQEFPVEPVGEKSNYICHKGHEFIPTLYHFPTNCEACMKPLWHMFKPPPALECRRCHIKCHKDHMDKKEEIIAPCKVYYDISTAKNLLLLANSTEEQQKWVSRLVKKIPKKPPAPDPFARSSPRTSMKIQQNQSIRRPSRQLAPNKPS

ROCK1, sequence (Q13464 whole entry, species assumed): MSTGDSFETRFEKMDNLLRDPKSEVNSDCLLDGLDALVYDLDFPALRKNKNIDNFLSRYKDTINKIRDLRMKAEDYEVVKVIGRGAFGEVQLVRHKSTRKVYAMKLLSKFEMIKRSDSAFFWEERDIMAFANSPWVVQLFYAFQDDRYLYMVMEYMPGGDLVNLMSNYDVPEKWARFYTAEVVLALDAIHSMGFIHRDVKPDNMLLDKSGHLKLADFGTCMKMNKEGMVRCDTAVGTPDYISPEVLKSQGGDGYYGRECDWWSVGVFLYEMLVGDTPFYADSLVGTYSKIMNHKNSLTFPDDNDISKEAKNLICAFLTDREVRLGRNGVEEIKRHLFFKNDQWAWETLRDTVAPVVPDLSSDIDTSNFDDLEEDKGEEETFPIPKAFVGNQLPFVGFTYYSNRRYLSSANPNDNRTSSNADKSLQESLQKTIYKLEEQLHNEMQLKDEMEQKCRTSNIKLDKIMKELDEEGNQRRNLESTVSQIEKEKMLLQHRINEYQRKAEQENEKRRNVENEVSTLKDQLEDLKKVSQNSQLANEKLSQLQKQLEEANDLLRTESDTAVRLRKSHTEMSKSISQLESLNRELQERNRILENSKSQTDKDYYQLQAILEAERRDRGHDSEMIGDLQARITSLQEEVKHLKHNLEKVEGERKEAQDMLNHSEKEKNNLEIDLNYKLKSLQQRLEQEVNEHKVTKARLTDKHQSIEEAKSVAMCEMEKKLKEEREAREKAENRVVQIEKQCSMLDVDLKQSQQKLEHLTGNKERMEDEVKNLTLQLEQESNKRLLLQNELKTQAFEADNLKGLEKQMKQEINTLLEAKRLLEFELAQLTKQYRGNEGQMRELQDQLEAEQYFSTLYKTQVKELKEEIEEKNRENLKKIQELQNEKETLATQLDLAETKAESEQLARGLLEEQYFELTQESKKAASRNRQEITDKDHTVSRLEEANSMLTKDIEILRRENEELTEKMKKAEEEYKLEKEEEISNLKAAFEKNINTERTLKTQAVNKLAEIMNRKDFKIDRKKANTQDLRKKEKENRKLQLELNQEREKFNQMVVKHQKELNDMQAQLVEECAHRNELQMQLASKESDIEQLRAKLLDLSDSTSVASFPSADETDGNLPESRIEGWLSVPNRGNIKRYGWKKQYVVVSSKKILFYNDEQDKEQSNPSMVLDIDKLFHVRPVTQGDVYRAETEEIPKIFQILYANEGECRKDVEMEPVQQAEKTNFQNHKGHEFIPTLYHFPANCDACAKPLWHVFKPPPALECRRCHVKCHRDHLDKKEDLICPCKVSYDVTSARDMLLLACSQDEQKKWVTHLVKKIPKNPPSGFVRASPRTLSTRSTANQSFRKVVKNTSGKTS

| pIC50 (ROCK1) | pIC50 (ROCK2) | SMILES |
| --- | --- | --- |
| 6.00 to 7.00 | 7.00 to 10.00 | CN1CCC(Oc2ccc3c(c2)N(C(=O)Cc2ccc(-c4n[nH]c(=O)c5ccccc45)cc2)CC3)CC1 [Example 282, 4-[4-(2-{6-[(1-methylpiperidin-4-yl)oxy]-2,3-dihydro-1H-indol-1-yl}-2-oxoethyl)phenyl]-1,2-dihydrophthalazin-1-one] |
| 7.00 to 10.00 | 7.00 to 10.00 | COC(=O)COc1ccc2c(c1)N(C(=O)Cc1ccc(-c3n[nH]c(=O)c4ccccc34)cc1)CC2 [Example 283, methyl 2-[(1-{2-[4-(4-oxo-3,4-dihydrophthalazin-1-yl)phenyl]acetyl}-2,3-dihydro-1H-indol-6-yl)oxy]acetate] |
| 7.00 to 10.00 | 7.00 to 10.00 | O=C(Cc1ccc(-c2n[nH]c(=O)c3ccccc23)cc1)N1CCc2ccc(OCC3COC3)cc21 [Example 284, 4-(4-{2-[6-(oxetan-3-ylmethoxy)-2,3-dihydro-1H-indol-1-yl]-2-oxoethyl}phenyl)-1,2-dihydrophthalazin-1-one] |
| 7.00 to 10.00 | 7.00 to 10.00 | O=C(Cc1ccc(-c2n[nH]c(=O)c3ccccc23)cc1)N1CCc2ccc([N+](=O)[O-])cc21 [Example 285, 4-{4-[2-(6-nitro-2,3-dihydro-1H-indol-1-yl)-2-oxoethyl]phenyl}-1,2-dihydrophthalazin-1-one] |
| 6.00 to 7.00 | 7.00 to 10.00 | O=C(Cc1ccc(-c2n[nH]c(=O)c3ccccc23)cc1)N1CCc2ccc(OCCN3CCCC3)cc21 [Example 286, 4-[4-(2-oxo-2-{6-[2-(pyrrolidin-1-yl)ethoxy]-2,3-dihydro-1H-indol-1-yl}ethyl)phenyl]-1,2-dihydrophthalazin-1-one] |
| 7.00 to 10.00 | 7.00 to 10.00 | CC(C)(O)COc1ccc2c(c1)N(C(=O)Cc1ccc(-c3c[nH]c(=O)c4ccccc34)cc1)CC2 [Example 288, 4-(4-(2-(6-(2-Hydroxy-2-methylpropoxy)indolin-1-yl)-2-oxoethyl)phenyl)isoquinolin-1(2H)-one] |
| 7.00 to 10.00 | 7.00 to 10.00 | COc1ccc2c(=O)[nH]cc(-c3ccc(CC(=O)N4CCc5ccc(OCC(C)(C)O)cc54)cc3)c2c1 [Example 289, 4-(4-(2-(6-(2-Hydroxy-2-methylpropoxy)indolin-1-yl)-2-oxoethyl)phenyl)-6-methoxyisoquinolin-1(2H)-one] |
| 7.00 to 10.00 | 7.00 to 10.00 | O=C(O)COc1ccc2c(c1)N(C(=O)Cc1ccc(-c3n[nH]c(=O)c4ccccc34)cc1)CC2 [Example 290, 2-((1-(2-(4-(4-Oxo-3,4-dihydrophthalazin-1-yl)phenyl)acetyl)indolin-6-yl)oxy)acetic Acid] |
| 6.00 to 7.00 | 7.00 to 10.00 | CN(C)C(=O)c1ccc2c(c1)N(C(=O)Cc1ccc(-c3n[nH]c(=O)c4ccccc34)cc1)CC2 [Example 291, N,N-dimethyl-1-{2-[4-(4-oxo-3,4-dihydrophthalazin-1-yl)phenyl]acetyl}-2,3-dihydro-1H-indole-6-carboxamide] |
| 6.00 to 7.00 | 7.00 to 10.00 | CN1CCN(C(=O)c2ccc3c(c2)N(C(=O)Cc2ccc(-c4n[nH]c(=O)c5ccccc45)cc2)CC3)CC1 [Example 292, 4-(4-{2-[6-(4-methylpiperazine-1-carbonyl)-2,3-dihydro-1H-indol-1-yl]-2-oxoethyl}phenyl)-1,2-dihydrophthalazin-1-one] |
| 6.00 to 7.00 | 7.00 to 10.00 | O=C(c1ccc2c(c1)N(C(=O)Cc1ccc(-c3n[nH]c(=O)c4ccccc34)cc1)CC2)N1CCOCC1 [Example 293, 4-(4-{2-[6-(morpholine-4-carbonyl)-2,3-dihydro-1H-indol-1-yl]-2-oxoethyl}phenyl)-1,2-dihydrophthalazin-1-one] |
| 6.00 to 7.00 | 7.00 to 10.00 | O=C(c1ccc2c(c1)CCN2C(=O)Cc1ccc(-c2n[nH]c(=O)c3ccccc23)cc1)N1CCC(O)CC1 [Example 294, 4-(4-{2-[5-(4-hydroxypiperidine-1-carbonyl)-2,3-dihydro-1H-indol-1-yl]-2-oxoethyl}phenyl)-1,2-dihydrophthalazin-1-one] |
| 6.00 to 7.00 | 7.00 to 10.00 | O=C(c1ccc2c(c1)N(C(=O)Cc1ccc(-c3n[nH]c(=O)c4ccccc34)cc1)CC2)N1CCC(O)CC1 [Example 295, 4-(4-{2-[6-(4-hydroxypiperidine-1-carbonyl)-2,3-dihydro-1H-indol-1-yl]-2-oxoethyl}phenyl)-1,2-dihydrophthalazin-1-one] |
| 6.00 to 7.00 | 7.00 to 10.00 | O=C(c1ccc2c(c1)CCN2C(=O)Cc1ccc(-c2n[nH]c(=O)c3ccccc23)cc1)N1CCOCC1 [Example 296, 4-(4-{2-[5-(morpholine-4-carbonyl)-2,3-dihydro-1H-indol-1-yl]-2-oxoethyl}phenyl)-1,2-dihydrophthalazin-1-one] |
| 7.00 to 10.00 | 7.00 to 10.00 | O=C(COc1ccc2c(c1)N(C(=O)Cc1ccc(-c3n[nH]c(=O)c4ccccc34)cc1)CC2)N1CCOCC1 [Example 297, 4-(4-(2-(6-(2-Morpholino-2-oxoethoxy)indolin-1-yl)-2-oxoethyl)phenyl)phthalazin-1(2H)-one] |
| 7.00 to 10.00 | 7.00 to 10.00 | NC(=O)COc1ccc2c(c1)N(C(=O)Cc1ccc(-c3n[nH]c(=O)c4ccccc34)cc1)CC2 [Example 298, 2-((1-(2-(4-(4-Oxo-3,4-dihydrophthalazin-1-yl)phenyl)acetyl)indolin-6-yl)oxy)acetamide] |

| SMILES | pIC50 (ROCK1) | pIC50 (ROCK2) |
| --- | --- | --- |
| O=C(Cc1ccc(-c2c[nH]c(=O)c3ccccc23)c(F)c1)N1CCc2ccccc21 [Example 287, 4-(2-Fluoro-4-(2-(indolin-1-yl)-2-oxoethyl)phenyl)isoquinolin-1 (2H)-one] | 7.00 to 10.00 | 7.00 to 10.00 |
| CN1CCN(C(=O)COc2ccc3c(c2)N(C(=O)Cc2ccc(-c4n[nH]c(=O)c5ccccc45)cc2)CC3)CC1 [Example 299, 4-(4-(2-(6-(2-(4-Methylpiperazin-1-yl)-2-oxoethoxy)indolin-1-yl)-2-oxoethyl)phenyl)phthalazin-1(2H)-one] | 6.00 to 7.00 | 7.00 to 10.00 |
| CN(C)c1ccc(C(=O)Nc2ccc3c(c2)N(C(=O)Cc2ccc(-c4n[nH]c(=O)c5ccccc45)cc2)CC3)cc1 [Example 300, 4-(Dimethylamino)-N-(1-(2-(4-(4-oxo-3,4-dihydrophthalazin-1-yl)phenyl)acetyl)indolin-6-yl)benzamide] | 7.00 to 10.00 | 7.00 to 10.00 |
| Cc1cc(NC(=O)c2nn(CC(C)(C)O)c3ccccc23)ccc1-c1n[nH]c(=O)c2ccccc12 [Example 301, 1-(2-hydroxy-2-methylpropyl)-N-[3-methyl-4-(4-oxo-3,4-dihydrophthalazin-1-yl)phenyl]-1H-indazole-3-carboxamide] | 7.00 to 10.00 | 7.00 to 10.00 |
| Cc1cc(NC(=O)c2cn(CC(C)(C)O)c3ccccc23)ccc1-c1n[nH]c(=O)c2ccccc12 [Example 302, 1-(2-hydroxy-2-methylpropyl)-N-[3-methyl-4-(4-oxo-3,4-dihydrophthalazin-1-yl)phenyl]-1H-indole-3-carboxamide] | 7.00 to 10.00 | 7.00 to 10.00 |
| Cc1cc(NC(=O)c2nn(CCN(C)C)c3ccccc23)ccc1-c1n[nH]c(=O)c2ccccc12 [Example 303, 1-[2-(dimethylamino)ethyl]-N-[3-methyl-4-(4-oxo-3,4-dihydrophthalazin-1-yl)phenyl]-1H-indazole-3-carboxamide] | 6.00 to 7.00 | 7.00 to 10.00 |
